Literature values as cited in patent US11077125B2, “Ophthalmic composition containing sulfasalazine and hyaluronic acid” (KUKJE PHARMA CO., LTD., priority 2016, dated 2021).
Converted amounts (≈) assume the structure as drawn.

Conditions: in water

O=C(O)c1cc(/N=N/c2ccc(S(=O)(=O)Nc3ccccn3)cc2)ccc1O [Sulfasalazine]
solubility: 46.4 µg/mL (≈ 116 µM)
